Experimental data from patent publication US20230310464A1, “USE OF C[…] THE TREATMENT OF SEIZURES ASSOCIATED WITH RARE […] SYNDROMES RELATED TO BRAIN INJURY” (GW Research Limited, priority 2020, published 2023).

Tested on: seizures associated with hypoxic ischaemic encephalopathy (HIE) or anoxia at birth
Assay: Open label, expanded-access program: seizure frequency recorded by caregivers in a diary, relative to baseline
Type: in vivo, human
Design: reduction in tonic seizures over the treatment period / reduction in spasms over the treatment period / reduction in absence seizures over the treatment period / reduction in tonic-clonic seizures over the treatment period / reduction in myoclonic seizures over the treatment period: concentration or dose not given beside the values; Seizure frequency, Tonic / Seizure frequency, Spasm / Seizure frequency, Absence / Seizure frequency, Tonic-clonic / Seizure frequency, Focal with impairment / Seizure frequency, Atonic / Seizure frequency, Focal without impairment / Seizure frequency, Focal secondary generalisation / Seizure frequency, Myoclonic: unit not given here
Procedure: Subjects were required to be on one or more AEDs at stable doses for a minimum of two weeks prior to baseline and to have stable vagus nerve stimulation (VNS) settings and ketogenic diet ratios for a minimum of four weeks prior to baseline.
Dose was then increased weekly by 5 mg/kg/day to a goal of 20 to 25 mg/kg/day.
Modifications were made to concomitant AEDs as per clinical indication.
Seizure frequency, intensity, and duration were recorded by caregivers in a diary during a baseline period of at least 28 days. Changes in seizure frequency relative to baseline were calculated after at least 2 weeks and at defined timepoints of treatment.
Patients may be defined as responders if they had more than 50% reduction in seizure frequency compared to baseline. The percent change in seizure frequency was calculated as follows: […]
The percent change of seizure frequency may be calculated for any time interval where seizure number has been recorded. For the purpose of this example the percent change of seizure frequency for the end of the treatment period was calculated as follows: […]

[1] = Patient 1, 2 weeks, CBD 8.3 mg/kg/day
[2] = Patient 1, 4 weeks, CBD 20.8 mg/kg/day
[3] = Patient 1, 8 weeks, CBD 25.2 mg/kg/day
[4] = Patient 1, 16 weeks, CBD 23.4 mg/kg/day
[5] = Patient 1, 24 weeks, CBD 22.9 mg/kg/day
[6] = Patient 1, 36 weeks, CBD 25.7 mg/kg/day
[7] = Patient 1, 48 weeks, CBD 21.8 mg/kg/day
[8] = Patient 1, treated for 48 weeks, vs baseline
[9] = Patient 2, 4 weeks, CBD 20.0 mg/kg/day
[10] = Patient 2, 8 weeks, CBD 25.0 mg/kg/day
[11] = Patient 2, 16 weeks, CBD 25.0 mg/kg/day
[12] = Patient 2, 24 weeks, CBD 25.0 mg/kg/day
[13] = Patient 2, 36 weeks, CBD 25.0 mg/kg/day
[14] = Patient 2, 48 weeks, CBD 25.0 mg/kg/day
[15] = Patient 2, 60 weeks, CBD 25.0 mg/kg/day
[16] = Patient 2, 72 weeks, CBD 25.0 mg/kg/day
[17] = Patient 2, 84 weeks, CBD 25.0 mg/kg/day
[18] = Patient 2, treated for 84 weeks, vs baseline
[19] = Patient 3, 4 weeks, CBD 5.0 mg/kg/day
[20] = Patient 3, 8 weeks, CBD 20.0 mg/kg/day
[21] = Patient 3, 12 weeks, CBD 25.0 mg/kg/day
[22] = Patient 3, 16 weeks, CBD 25.0 mg/kg/day
[23] = Patient 3, 24 weeks, CBD 30.0 mg/kg/day
[24] = Patient 3, 36 weeks, CBD 40.0 mg/kg/day
[25] = Patient 3, 48 weeks, CBD 50.0 mg/kg/day
[26] = Patient 3, 72 weeks, CBD 50.0 mg/kg/day
[27] = Patient 3, 84 weeks, CBD 50.0 mg/kg/day
[28] = Patient 3, 96 weeks, CBD 50.0 mg/kg/day
[29] = Patient 3, 108 weeks, CBD 50.0 mg/kg/day
[30] = Patient 3, 120 weeks, CBD 50.0 mg/kg/day
[31] = Patient 3, 132 weeks, CBD 50.0 mg/kg/day
[32] = Patient 4, 4 weeks, CBD 5.0 mg/kg/day
[33] = Patient 4, 8 weeks, CBD 5.0 mg/kg/day
[34] = Patient 4, 12 weeks, CBD 10.0 mg/kg/day
[35] = Patient 4, 24 weeks, CBD 15.0 mg/kg/day
[36] = Patient 4, 36 weeks, CBD 15.0 mg/kg/day

## C=C(C)[C@@H]1CCC(C)=C[C@H]1c1c(O)cc(CCCCC)cc1O [CBD, cannabidiol]
[1]
  Seizure frequency, Spasm: 108.0
  Seizure frequency, Tonic: 1044.0
[2]
  Seizure frequency, Spasm: 102.8
  Seizure frequency, Tonic: 904.0
[3]
  Seizure frequency, Spasm: 50.8
  Seizure frequency, Tonic: 770.0
[4]
  Seizure frequency, Spasm: 78.0
  Seizure frequency, Tonic: 764.8
[5]
  Seizure frequency, Spasm: 48.0
  Seizure frequency, Tonic: 917.2
[6]
  Seizure frequency, Spasm: 51.2
  Seizure frequency, Tonic: 634.0
[7]
  Seizure frequency, Spasm: 69.2
  Seizure frequency, Tonic: 424.8
[8]
  reduction in spasms over the treatment period: 44.2%
  reduction in tonic seizures over the treatment period: 59.8%
[9]
  Seizure frequency, Absence: 52.0
  Seizure frequency, Spasm: 440.0
[10]
  Seizure frequency, Absence: 52.0
  Seizure frequency, Spasm: 600.0
[11]
  Seizure frequency, Absence: 12.0
  Seizure frequency, Spasm: 632.0
[12]
  Seizure frequency, Absence: 24.0
  Seizure frequency, Spasm: 580.0
[13]
  Seizure frequency, Absence: 0
  Seizure frequency, Spasm: 560.0
[14]
  Seizure frequency, Absence: 0
  Seizure frequency, Spasm: 490.0
[15]
  Seizure frequency, Absence: 0
  Seizure frequency, Spasm: 196.0
[16]
  Seizure frequency, Absence: 0
  Seizure frequency, Spasm: 300.0
[17]
  Seizure frequency, Absence: 0
  Seizure frequency, Spasm: 340.0
[18]
  reduction in absence seizures over the treatment period: 100%
  reduction in spasms over the treatment period: 41.4%
[19]
  Seizure frequency, Focal with impairment: 43.0
  Seizure frequency, Tonic: 193.0
  Seizure frequency, Tonic-clonic: 2.0
[20]
  Seizure frequency, Focal with impairment: 132.0
  Seizure frequency, Tonic: 132.0
  Seizure frequency, Tonic-clonic: 0
[21]
  Seizure frequency, Focal with impairment: 38.0
  Seizure frequency, Tonic: 123.0
  Seizure frequency, Tonic-clonic: 0
[22]
  Seizure frequency, Focal with impairment: 46.0
  Seizure frequency, Tonic: 120.0
  Seizure frequency, Tonic-clonic: 6.0
[23]
  Seizure frequency, Focal with impairment: 51.2
  Seizure frequency, Tonic: 122.0
  Seizure frequency, Tonic-clonic: 4.8
[24]
  Seizure frequency, Tonic: 124.8
  Seizure frequency, Tonic-clonic: 20.0
[25]
  Seizure frequency, Focal with impairment: 38.8
  Seizure frequency, Tonic: 136.0
  Seizure frequency, Tonic-clonic: 11.2
[26]
  Seizure frequency, Focal with impairment: 53.0
  Seizure frequency, Tonic: 94.7
  Seizure frequency, Tonic-clonic: 4.0
[27]
  Seizure frequency, Focal with impairment: 53.0
  Seizure frequency, Tonic: 72.0
  Seizure frequency, Tonic-clonic: 5.7
[28]
  Seizure frequency, Focal with impairment: 46.3
  Seizure frequency, Tonic: 70.0
  Seizure frequency, Tonic-clonic: 11.6
[29]
  Seizure frequency, Focal with impairment: 46.4
  Seizure frequency, Tonic: 35.0
  Seizure frequency, Tonic-clonic: 10.4
[30]
  Seizure frequency, Focal with impairment: 62.8
  Seizure frequency, Tonic: 46.8
  Seizure frequency, Tonic-clonic: 9.8
[31]
  Seizure frequency, Focal with impairment: 77.2
  Seizure frequency, Tonic: 54.4
  Seizure frequency, Tonic-clonic: 12.0
[32]
  Seizure frequency, Atonic: 0
  Seizure frequency, Tonic: 4.0
  Seizure frequency, Tonic-clonic: 13.0
[33]
  Seizure frequency, Atonic: 0
  Seizure frequency, Tonic: 3.0
  Seizure frequency, Tonic-clonic: 18.0
[34]
  Seizure frequency, Atonic: 0
  Seizure frequency, Tonic: 0
  Seizure frequency, Tonic-clonic: 10.0
[35]
  Seizure frequency, Atonic: 6.0
  Seizure frequency, Tonic: 0
  Seizure frequency, Tonic-clonic: 0.6
[36]
  Seizure frequency, Atonic: 1.7
  Seizure frequency, Tonic: 0
